Laboratory results as given in US5608143A, “External regulation of gene expression” (E. I. Du Pont de Nemours and Company, priority 1994, dated 1997).

How the values were obtained:
[1] = test system: 2-1 gene (In 2-1 mRNA); assay: RNA slot blot / Northern analysis of 2-1 mRNA in roots of chemically treated corn; format: in vivo, corn (Missouri 17); set-up: In2-1 induction level: key to the marks not given beside the values
Description: Missouri 17 corn seeds were surface sterilized by soaking them in a solution of 10% commercial bleach and 0.1% sodium dodecylsulfate (SDS) for 30 minutes. Seeds were then rinsed thoroughly in a buchner funnel with sterile distilled water and prepared for germination by placing them onto 5-6 layers of moist sterile paper towels in a 8"×10" glass baking tray. The tray was covered with aluminum foil and placed in the dark in a 30° C. incubator for 48-72 hours to allow the seeds to germinate. After germination, seedlings were grown hydroponically in an apparatus consisting of a sheet of 8 mesh stainless steel wire gauze suspended over the top of a 2 liter glass beaker filled with sterile half strength Hoagland's solution (referred to 0.5× Hoagland's) so that the roots extended through the mesh and into the media. The hydroponic apparatus was aerated by introducing humidified air into the bottom of the beaker with a gas diffusing stone commonly used in tropical fish aquariums. The apparatus was covered with a loose-fitting sheet of aluminum foil and placed in a reach-in growth chamber illuminated by both fluorescent and incandescent lamps at an intensity of 4400 lux. Seedlings were grown at 28° C., 75% relative humidity using a 16 hour day/8 hour night cycle. After two days, the foil was removed and plants were grown for an additional 5-6 days. Any 0.5× Hoagland's lost to evaporation was replenished every 2-3 days. […] Plants were then allowed to grow for six additional hours prior to harvest.
A nitrocellulose filter (Schlicher and Schull BA-85) was wetted by soaking it twice for 10 minutes in water, followed by a 10 minute soak in 1M ammonium acetate. The filter was then placed into a Slot Blot apparatus (Schleicher and Schuell, Inc., Keene, N.H. 03431, CAT #SRC072/0). […] Forty pl of denaturation buffer (30% formaldehyde, 100 mM sodium phosphate pH 6.8) were added to each sample and all samples were then incubated at 65° C. for 20-30 minutes and quick-cooled in an ice slurry for 5 minutes. Thirty μl of 4M ammonium acetate were added to each sample and the 150 μl samples were added to slots in the blotting cell with the aid of a 10-15 mm Hg vacuum. The filter was removed from the blotting cell, air dried and baked for 2 hours at 70° C. in vacuo.
The filter was cut into six pieces such that each piece had one slot cox.raining RNA from each of the three treatments described above. One of the filter pieces was incubated with 10 ml of prehybridization buffer (50% deienized formamide, 5× SSC, 5× Denhardt's, 100 μg/ml denatured calf thymus DNA, 20 μg/ml homopoly(A), 40 mM sodium phosphate pH 6.8 and 0.5% BSA) in a heat-sealable bag for 6 hours at 42° C. with occasional mixing. The filter piece was then hybridized with nick-translated pIn 2-1. This was performed by discarding the prehybridization solution from the bag and replacing it with 2.5 ml of hybridization buffer (50% deionized formamide, 5× SSC, 100 μg/ml denatured calf thymus DNA, 20 μg/ml homopoly(A) and 40 mM sodium phosphate, pH 6.8) containing 1.25×10^7 cpm of nick translated 2-1 plasmid described above. Nick-translated plasmid was denatured by boiling for 10 minutes followed by quick-cooling on ice. The filter was then hybridized overnight at 42° C. with occasional mixing.

[2] = test system: tobacco T2 gene (T2 mRNA); assay: Northern analysis of T2 mRNA in roots of chemically treated tobacco; format: in vivo, N. tabacum (Petite Havana SRI); conditions: treated vs control plants
From the text: The procedures described for the isolation of the petunia cDNA clone P6.1 in Example 4 were repeated using N. tabacum (Petite Havana SRI) as the starting plant material. Differential screening of the resulting tobacco cDNA library prepared using poly(A)^+ RNA from the roots of N-(aminocarbonyl)-2-chlorobenzenesulfonamide-treated tobacco plants identified a cDNA clone representing an N-(aminocarbonyl)-2-chlorobenzenesulfonamide-inducible mRNA species. This clone was designated T2.
A Northern blot of total RNA from the roots of untreated and N-(aminocarbonyl)-2-chlorobenzenesulfonamide-treated tobacco plants was probed with nick-translated T2.1 to determine the size of the corresponding T2 mRNA. The methods used for these procedures were described in Example 4.

[3] = test system: tobacco leaf pieces (callus formation); assay: Callus formation of leaf pieces from kanamycin-resistant tobacco shoots on selective medium; format: cell-based; conditions: sixteen kanamycin-resistant shoots, three weeks; 10 ppb chlorsulfuron and/or 100 ppm D5293
From the text: Callus formation was scored as plus or minus after three weeks of growth.

NC(=O)NS(=O)(=O)c1ccccc1Cl
hybridization of pIn 2-1 to root RNA (RNA slot blot) ([1]; hydroponic 0.2 g/liter, six hours, corn roots): strongly hybridized | In2-1 induction level ([1]; hydroponic application, 100 ppm): +++++ | hybridization of pIn 2-1 to root poly(A)+ RNA (Northern blot) ([1]; hydroponic treatment, corn roots): single intense hybridization signal | hybridization of T2.1 to root RNA (Northern blot) [2]: hybridized to an mRNA of 800 nt | Callus formation (shoots whose leaf pieces formed callus / shoots tested) [3]: 0/16
